From US9957236B2, “Selective inhibitors interfering with fibroblast growth factor receptor and FRS2 interaction for the prevention and treatment of cancer and other diseases” (LIMITED LIABILITY COMPANY “RUSSIAN PHARMACEUTICAL …, priority 2014, dated 2018)

Legend:
[1] = system: angiogenesis stimulated by bFGF; experiment: Matrigel implant angiogenesis stimulated by bFGF; assay type: in vivo, mice
Experimental: Eighteen hybrid mice of the 1 generation F1 (C57B1/6×DBA/2), males with a weight of 22-30 g are used in the research. The mice (nomenclature number M02.13.00011) were received from a branch of nursery “Stolbovaya”. The method described earlier was used in the experiment [Passaniti A., 1992]. The control and experiment groups had at least 3 mice. Aliquots (1,000 mcl) of Matrigel (BD Biosciences) containing heparin 60 conventional units/ml, VEGF (200 ng/ml, BD Biosciences) or bFGF (100 ng/ml, BD Biosciences) were prepared on ice. Matrigel containing heparin 60 conventional units/ml was used as negative control. Matrigel was injected in the mice subcutaneously into the side part of the back. After injection, Matrigel quickly forms single, hard gel-like implant. A weight of the inhibitor was dissolved in DMSO to concentration of 10^−2M. Aliquots were frozen down to −20° C. and unfrozen immediately before injection. Refreezing of the solution was not allowed. The tested and standard objects were administered intraperitoneally on the 0, 3 and 6 day of Matrigel impintation: Bevacizumab in a dose of 10 mg/kg and RPT835-15 mg/kg. Seven days after administration of Matrigel, the mice were put into sleep with diethyl ether to remove the implant. The implants were fixed for 24-36 hours in 10% neutral formalin and enclosed in paraffin for further histological research.

Acute toxicity = assay type: in vivo; settings: acute administration
Source text: Besides, acute toxicity of inhibitor RPT835 was studied in the following volume in a separate research: • Acute toxicity of the medicine was researched. […] The state of the animals after acute administration testifies of good tolerability of the medicine in doses exceeding the maximal therapeutic ones (about 4.3 mcg/kg) tens—hundreds of times.

SUM-52 cells = experiment: Proliferation of SUM-52 cells expressing FGFR2 IIIb; assay type: cell-based, human; settings: SUM-52 (FGFR2 IIIb), RPT835 1 micron, FGF-1 100 ng/ml
Experimental: The research assessed the influence of inhibitor RPT835 determined by formula II of this invention, intervention with interaction of FGFR2 represented by two most frequent isoforms IIIb and IIIc with FRS2. For this, human cell line of embryonal osteoblasts (hFOB) expressing only FGFR2 […], and human cell line of breast cancer SUM-52 expressing FGFR2 IIIb (all main versions of isoform—C1, C2, C3) were chosen.
Cells were divided into the groups: • 1a) hFOB • 1b) hFOB, stimulating FGF-1 (100 ng/ml) • 1c) hFOB, cultivation with RPT835 (1 micron) and stimulation of FGF-1 (100 ng/ml) • 2a) SUM-52 • 2b) SUM-52, stimulation of FGF-1 (100 ng/ml) • 2c) SUM-52, cultivation with RPT835 (1 micron) and stimulation of FGF-1 (100 ng/ml)

[2] = reaction of immune complexes, general anaphylaxis, degranulation of mast cells, conjuctival test
FRS2α = target: T1, FRS2α (Homo sapiens, UniProt Q8WU20); experiment: FRS2α phosphorylation in breast cancer cells MDA MB 134 (FGFR1 system); assay type: cell-based; parameters: endogenous in cells; host or cells: MDA MB 134; settings: MDA MB 134 cells
T1 sequence (Q8WU20 1-508): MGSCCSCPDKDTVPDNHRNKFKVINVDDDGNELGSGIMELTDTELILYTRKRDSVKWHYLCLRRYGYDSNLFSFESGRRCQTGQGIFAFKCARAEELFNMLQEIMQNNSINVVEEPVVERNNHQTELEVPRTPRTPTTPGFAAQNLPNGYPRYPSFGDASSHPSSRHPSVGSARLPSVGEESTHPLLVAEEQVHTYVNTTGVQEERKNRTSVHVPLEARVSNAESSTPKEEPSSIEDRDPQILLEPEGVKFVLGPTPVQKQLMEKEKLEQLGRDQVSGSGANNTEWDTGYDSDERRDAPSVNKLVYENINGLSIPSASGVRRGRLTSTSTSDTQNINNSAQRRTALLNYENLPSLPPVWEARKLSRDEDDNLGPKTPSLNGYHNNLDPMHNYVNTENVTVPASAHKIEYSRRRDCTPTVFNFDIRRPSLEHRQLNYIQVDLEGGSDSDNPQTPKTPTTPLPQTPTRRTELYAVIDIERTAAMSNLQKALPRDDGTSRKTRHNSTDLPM
Source text: The purpose of this research was assessment of specific action of inhibitor RPT835 specified in this invention with formula II, on interaction of […] and FRS2 and assessment of influence on interaction of other types of FGFR and FRS2. For the experiment, 2 cell lines were selected: • stomach cancer KATO III, expressing FGFR2, and • breast cancer MDA MB 134, expressing FGFR1.
The research procedure was the same as in the previous examples: the cells were cultivated in presence of RPT835 followed by stimulation with FGF-2 and heparin. The other part of the cells was cultivated in presence of RPT835. Phosphorylation of FGFR1 (in breast cancer cells) and FGFR2 (in stomach cancer cells), and also FRS2a (in the both cell lines) and some intracellular kinases (in breast cancer cells) was assessed using manual and automated Western blotting.

FGFR2 = experiment: FGFR phosphorylation in KATO III cells (Western blotting, Wes); assay type: cell-based
Experimental: For assessment of the effect of RPT835 inhibitor characterized in this invention with formula II, stomach cancer cells KATO III, which express FGFR2, were used for FRS2 phosphorylation. FGF-2 in concentration of 1 mg/ml and heparin 10 mg/ml were added to the cells for stimulation of FGFR. RPT835 was added in various concentrations. A part of the cells was left without adding the inhibitor, and a part of the cells—without adding either inhibitor, or stimulating agents (control group).
Two standard methods for assessment of the phosphorylation level of FGFR and FRS2: • Western blotting using manual work; • Automatic capillary electrophoresis and immunodetection using automatic system Wes™ (ProteinSimple; SantaClara, Calif.).
Like in Example 1, stomach cancer cells KATO III strongly expressing FGFR2 were used. A part of cells stimulated FGF-2 in concentration 1 mg/ml and heparin 10 mg/ml. The other part of the cells was left without stimulation. Inhibitor RPT835 in dose 1, 10, 100, 1000 nM was added to cells. The control group left without addition of RPT835.
The level of FGFR phosphorylation was assessed using standard Western-blotting and automatic capillary electrophoresis with immune-detection and use of automatic system Wes™ (ProteinSimple; SantaClara, Calif.).

[3] = Matrigel + bFGF, 15 mg/kg intraperitoneally day 0, 3, 6, p<0.001

Compound: Cc1cc([N+](=O)[O-])c(NS(=O)(=O)c2cccc(C(=O)O)c2)cc1-c1cccnc1 [RPT835, 3-(N-(4-methyl-2-nitro-5-(pyridin-3-yl)phenyl)sulfamoyl)benzoic acid]
- decrease of number of functional micro-vessels compared to the control group [1, 3]: more than 2 fold
- decrease of number of migrated cells compared to the control group [1, 3]: more than 2 fold
- decrease of number of tubular structures compared to the control group ([1]; Matrigel + bFGF, 15 mg/kg intraperitoneally day 0, 3, 6, p=0.016): more than 2 fold
- angiogenesis stimulated by bFGF ([1]; Matrigel implants in mice, intraperitoneally day 0, 3, 6, RPT835 15 mg/kg, Bevacizumab 10 mg/kg): effectively inhibited
- toxicity class (Hodge; Sidorov) (Acute toxicity; 14 days observation, necropsy): IV class of low toxicity
- LD50 at 14 days (Acute toxicity; in vivo, read-out: Median lethal dose (LD50)): > 2000 mg/kg
- proliferation of cells (SUM-52 cells): reliably suppressed proliferation
- allergic properties [2]: does not show any allergic properties
- phosphorylation of FRS2α (system FGFR1) (FRS2α): did not have influence
- phosphorylation of FGFR2 stimulated by FGF-2 (tyrosine kinase activity) (FGFR2; KATO III cells, 1, 10, 100, 1000 nM): did not have any effect
- phosphorylation of general FGFR (FGFR2; KATO III cells, with and without FGF-2 stimulation): without influence on phosphorylation of general FGFR
